The results in this text go back to ChEMBL document CHEMBL2203001, “Flavonoid glycosides from the leaves of Allium victorialis var. platyphyllum and their anti-neuroinflammatory effects” (Bioorg Med Chem Lett, 2012).

SMILES strings stand for the structures. Some results are limits rather than exact numbers.

One series has as its system BV-2. The series is described as follows: Antineuroinflammatory activity against mouse BV2 cells assessed as inhibition of LPS-induced nitric oxide production after 24 hrs by Griess method. Type of series: functional, cell-based. The note with it: BV-2, 24 h.
Series [1] can be described thus: Cytotoxicity against mouse BV2 cells assessed as cell viability at 20 uM by MTT assay relative to LPS-treated cells. Type of series: cell-based, BV-2. Conditions: read-out: Activity.

In the case of `C[C@@H]1O[C@@H](OC[C@H]2O[C@@H](Oc3c(-c4ccc(O)cc4)oc4cc(O)cc(O)c4c3=O)[C@H](O)[C@@H](O)[C@@H]2O)[C@H](O)[C@H](O)[C@H]1O` [NICOTIFLOROSIDE], the concentration for half-maximal inhibition (IC50) (commonly the midpoint of a concentration-inhibition curve) in the series with BV-2 came to 122 µM. Moreover, the viability at 20 µM in series [1] is 104%.

As to `O=C(/C=C/c1ccc(O)cc1)O[C@H]1[C@H](Oc2c(-c3ccc(O[C@@H]4O[C@H](CO)[C@@H](O)[C@H](O)[C@H]4O)cc3)oc3cc(O[C@@H]4O[C@H](CO)[C@@H](O)[C@H](O)[C@H]4O)cc(O)c3c2=O)O[C@H](CO)[C@@H](O)[C@@H]1O` [ALLIVICTOSIDE C], the IC50 with BV-2 was found to be 44 µM. In series [1], the viability at 20 µM was found to be 104%.

As to `O=c1c(O[C@@H]2O[C@H](CO)[C@@H](O)[C@H](O)[C@H]2O)c(-c2ccc(O)cc2)oc2cc(O[C@@H]3O[C@H](CO)[C@@H](O)[C@H](O)[C@H]3O)cc(O)c12`, in the series with BV-2, the concentration for half-maximal inhibition (IC50) turned out to be 28.9 µM. Besides, the viability at 20 µM in series [1] is 106%.

For `COc1cc(/C=C/C(=O)O[C@H]2[C@H](Oc3c(-c4ccc(O)cc4)oc4cc(O[C@@H]5O[C@H](CO)[C@@H](O)[C@H](O)[C@H]5O)cc(O)c4c3=O)O[C@H](CO)[C@@H](O)[C@@H]2O)ccc1O` [ALLIVICTOSIDE F], the IC50 in the series with BV-2 was 20.4 µM. Besides, the viability at 20 µM in series [1] was 100%.

Turning to `COc1cc(/C=C/C(=O)O[C@H]2[C@H](Oc3cc(O)c4c(=O)c(O[C@@H]5O[C@H](CO)[C@@H](O)[C@H](O)[C@H]5O)c(-c5ccc(O)cc5)oc4c3)O[C@H](CO)[C@@H](O)[C@@H]2O)ccc1O`, the IC50 in the series with BV-2 came to 21.5 µM. The viability at 20 µM in series [1] was found to be 106%.

For the compound `O=c1c(O[C@@H]2O[C@H](CO)[C@@H](O)[C@H](O)[C@H]2O)c(-c2ccc(O[C@@H]3O[C@H](CO)[C@@H](O)[C@H](O)[C@H]3O)cc2)oc2cc(O)cc(O)c12`, the 50% inhibitory concentration (IC50) in the series with BV-2 worked out at 170 µM. Moreover, the viability at 20 µM in series [1] worked out at 99.1%.

Regarding `O=c1c(O[C@@H]2O[C@H](CO)[C@@H](O)[C@H](O)[C@H]2O)c(-c2ccc(O[C@@H]3O[C@H](CO)[C@@H](O)[C@H](O)[C@H]3O)c(O)c2)oc2cc(O)cc(O)c12`, in the series on BV-2, the IC50 worked out at 45.5 µM. Also, in series [1], the viability at 20 µM was determined as 100%.

In the case of `O=C(/C=C/c1ccc(O)cc1)O[C@@H]1[C@@H](O)[C@H](Oc2c(-c3ccc(O[C@@H]4O[C@H](CO)[C@@H](O)[C@H](O)[C@H]4O)cc3)oc3cc(O[C@@H]4O[C@H](CO)[C@@H](O)[C@H](O)[C@H]4O)cc(O)c3c2=O)O[C@H](CO)[C@H]1O` [ALLIVICTOSIDE E], the IC50 in the series with BV-2 worked out at 49.5 µM. The viability at 20 µM in series [1] came out at 104%.

For the compound `O=C(/C=C/c1ccc(O)cc1)O[C@H]1[C@H](Oc2c(-c3ccc(O[C@@H]4O[C@H](CO)[C@@H](O)[C@H](O)[C@H]4O)cc3)oc3cc(O)cc(O)c3c2=O)O[C@H](CO)[C@@H](O)[C@@H]1O` [ALLIVICTOSIDE A], the half-inhibitory concentration (IC50) in the series on BV-2 worked out at 55.6 µM. Further, the viability at 20 µM in series [1] came to 109%.

With `O=c1c(O)c(-c2ccc(O[C@@H]3O[C@H](CO)[C@@H](O)[C@H](O)[C@H]3O)c(O)c2)oc2cc(O[C@@H]3O[C@H](CO)[C@@H](O)[C@H](O)[C@H]3O)cc(O)c12`, the IC50 in the series with BV-2 is 51.7 µM. Moreover, the viability at 20 µM in series [1] came out at 105%.

On to `O=c1c(O[C@@H]2O[C@H](CO)[C@@H](O)[C@H](O)[C@H]2O)c(-c2ccc(O)cc2)oc2cc(O)cc(O)c12` [ASTRAGALIN], for which the IC50 in the series on BV-2 was found to be 77.4 µM. Moreover, in series [1], the viability at 20 µM came out at 106%.

As to `O=c1c(O[C@@H]2O[C@H](CO)[C@@H](O)[C@H](O)[C@H]2O)c(-c2ccc(O[C@@H]3O[C@H](CO)[C@@H](O)[C@H](O)[C@H]3O)cc2)oc2cc(O[C@@H]3O[C@H](CO)[C@@H](O)[C@H](O)[C@H]3O)cc(O)c12`, in the series on BV-2, the 50% inhibitory concentration (IC50) stood at 33 µM. Moreover, the viability at 20 µM in series [1] amounted to 102%.

On to `O=C(/C=C\c1ccc(O)cc1)O[C@H]1[C@H](Oc2c(-c3ccc(O[C@@H]4O[C@H](CO)[C@@H](O)[C@H](O)[C@H]4O)cc3)oc3cc(O[C@@H]4O[C@H](CO)[C@@H](O)[C@H](O)[C@H]4O)cc(O)c3c2=O)O[C@H](CO)[C@@H](O)[C@@H]1O` [ALLIVICTOSIDE D], for which the 50% inhibitory concentration (IC50) in the series on BV-2 was 48.5 µM. Moreover, the viability at 20 µM in series [1] is 100%.

Consider `CNC(=N)NCCC[C@H](N)C(=O)O` [TILARGININE], for which the concentration for half-maximal inhibition (IC50) with BV-2 was 16.3 µM. Moreover, the viability at 20 µM in series [1] was 98.2%.

With `O=c1c(O)c(-c2ccc(O)cc2)oc2cc(O[C@@H]3O[C@H](CO)[C@@H](O)[C@H](O)[C@H]3O)cc(O)c12`, the half-inhibitory concentration (IC50) with BV-2 worked out at 39.1 µM. In series [1], the viability at 20 µM was determined as 107%.

In the case of `COc1cc(/C=C/C(=O)O[C@H]2[C@H](Oc3c(-c4ccc(O[C@H]5O[C@@H](CO)[C@H](O)[C@@H](O)[C@@H]5O)c(O)c4)oc4cc(O[C@@H]5O[C@H](CO)[C@@H](O)[C@H](O)[C@H]5O)cc(O)c4c3=O)O[C@H](CO)[C@@H](O)[C@@H]2O)ccc1O` [ALLIVICTOSIDE H], in the series on BV-2, the half-maximal inhibitory concentration (IC50) was 29.9 µM. Moreover, in series [1], the viability at 20 µM is 105%.

Consider `O=c1c(O[C@@H]2O[C@H](CO)[C@@H](O)[C@H](O)[C@H]2O)c(-c2ccc(O)c(O)c2)oc2cc(O)cc(O)c12` [ISOQUERCETIN], for which the IC50 in the series with BV-2 worked out at 19.8 µM. In series [1], the viability at 20 µM came to 97.3%.

Turning to `O=C(/C=C/c1ccc(O)cc1)O[C@H]1[C@H](Oc2c(-c3ccc(O[C@H]4O[C@@H](CO)[C@H](O)[C@@H](O)[C@@H]4O)c(O)c3)oc3cc(O)cc(O)c3c2=O)O[C@H](CO)[C@@H](O)[C@@H]1O` [ALLIVICTOSIDE G], the IC50 in the series with BV-2 was greater than 200 µM. Moreover, the viability at 20 µM in series [1] was 101%.

In the case of `COc1cc(/C=C/C(=O)O[C@H]2[C@H](Oc3c(-c4ccc(O[C@@H]5O[C@H](CO)[C@@H](O)[C@H](O)[C@H]5O)cc4)oc4cc(O[C@@H]5O[C@H](CO)[C@@H](O)[C@H](O)[C@H]5O)cc(O)c4c3=O)O[C@H](CO)[C@@H](O)[C@@H]2O)ccc1O`, the half-inhibitory concentration (IC50) with BV-2 stood at 43.4 µM. Further, the viability at 20 µM in series [1] came out at 101%.

As to `COc1cc(/C=C/C(=O)O[C@H]2[C@H](Oc3c(-c4ccc(O[C@@H]5O[C@H](CO)[C@@H](O)[C@H](O)[C@H]5O)cc4)oc4cc(O)cc(O)c4c3=O)O[C@H](CO)[C@@H](O)[C@@H]2O)ccc1O` [ALLIVICTOSIDE B], the 50% inhibitory concentration (IC50) in the series with BV-2 was 20.7 µM. The viability at 20 µM in series [1] was 107%.

With `O=C(/C=C/c1ccc(O)cc1)O[C@H]1[C@H](Oc2c(-c3ccc(O)cc3)oc3cc(O[C@@H]4O[C@H](CO)[C@@H](O)[C@H](O)[C@H]4O)cc(O)c3c2=O)O[C@H](CO)[C@@H](O)[C@@H]1O`, the IC50 in the series with BV-2 was determined as 47.2 µM. Moreover, the viability at 20 µM in series [1] is 105%.
